For the assay, the target named is T1, CHK1 (Homo sapiens, UniProt O14757).
T1 sequence (O14757 1-476): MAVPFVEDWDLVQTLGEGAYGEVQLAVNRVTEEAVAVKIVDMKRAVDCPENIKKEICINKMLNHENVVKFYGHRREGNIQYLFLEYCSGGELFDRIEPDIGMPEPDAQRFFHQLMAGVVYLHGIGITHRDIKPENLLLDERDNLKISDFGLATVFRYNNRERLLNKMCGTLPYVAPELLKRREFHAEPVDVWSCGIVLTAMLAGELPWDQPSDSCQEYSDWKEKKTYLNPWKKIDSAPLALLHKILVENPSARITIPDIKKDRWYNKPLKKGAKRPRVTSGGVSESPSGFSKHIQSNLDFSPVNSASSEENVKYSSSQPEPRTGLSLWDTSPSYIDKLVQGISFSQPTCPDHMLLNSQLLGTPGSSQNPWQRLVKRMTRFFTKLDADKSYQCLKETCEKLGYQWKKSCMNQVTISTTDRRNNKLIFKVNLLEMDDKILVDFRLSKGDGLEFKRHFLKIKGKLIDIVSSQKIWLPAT
Briefly: CHK1 kinase function inhibition assay (DELFIA, phosphorylation of a CDC25C peptide). The class given is biochemical. The note with it: CHK1 1 nM, ATP 30 μM, 30 minutes at room temperature. The procedure, abridged:
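Phosphorylation of a CDC25C peptide detected by DELFIA with a phospho-specific antibody. Kinase reaction ran 30 min at room temperature, was stopped with EDTA buffer, then captured on neutravidin-coated plates for 1 h before time-resolved fluorescence read-out with enhancement solution.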

“And” between values parts separate entries of the source, which are not always exact repeats. Equal values may be shown once.

For the molecule `N#Cc1cnc(Nc2cc(NCCC3CCNCC3)ncn2)cn1` [Compound Z-029, 5-(6-(2-(Piperidin-4-yl)ethylamino)pyrimidin-4-ylamino)pyrazine-2-carbonitrile], the IC50 (as a rule, the midpoint of a concentration-inhibition curve) is ≤ 1000 nM and 100 to 1000 nM. The same measure for `CN(CC1CCNCC1)c1cc(Nc2cnc(C#N)cn2)ncn1` [Compound Z-031, 5-(6-(Methyl(piperidin-4-ylmethyl)amino)pyrimidin-4-ylamino)pyrazine-2-carbonitrile]: 1000 to 10000 nM; for `CC(Nc1cc(Nc2cnc(C#N)cn2)ncn1)C1CCNCC1` (stereo not shown) [Compound Z-032, 5-(6-(1-(Piperidin-4-yl)ethylamino)pyrimidin-4-ylamino)pyrazine-2-carbonitrile]: 1000 to 10000 nM. Take `N#Cc1cnc(Nc2cc(N[C@H]3CC[C@H](O)CC3)ncn2)cn1` [Compound Z-038, 5-(6-((1r,4r)-4-Hydroxycyclohexylamino)pyrimidin-4-ylamino)pyrazine-2-carbonitrile]: the IC50 was in the range of 1000 to 10000 nM.

On to `CC(C)(CO)Nc1cc(Nc2cnc(C#N)cn2)ncn1` [Compound Z-039, 5-(6-(1-Hydroxy-2-methylpropan-2-ylamino)pyrimidin-4-ylamino)pyrazine-2-carbonitrile], for which the IC50 is ≤ 1000 nM and 100 to 1000 nM. The same measure for `N#Cc1cnc(Nc2cc(NCCCCO)ncn2)cn1` [Compound Z-041, 5-(6-(4-Hydroxybutylamino)pyrimidin-4-ylamino)pyrazine-2-carbonitrile]: 1000 to 10000 nM. The same measure for `COc1nc(Nc2cc(NCC3CCNCC3)ncn2)cnc1C#N` [Compound Z-046, 3-Methoxy-5-(6-(piperidin-4-ylmethylamino)pyrimidin-4-ylamino)-pyrazine-2-carbonitrile]: 1000 to 10000 nM.

Values taken from patent publication US8367658B2, “Pyrazin-2-yl-pyridin-2-yl-amine and pyrazin-2-yl-pyrimidin-4-yl-amine compounds and their use” (Cancer Research Technology Limited, priority 2007, dated 2013).
